Measurements published in patent publication US10807985B2 (Blueprint Medicines Corporation, priority 2013, dated 2020).

Columns and labels:
PDGFRA D842V = PDGFRA D842V (Homo sapiens (Human), UniProt P16234, D842V); assay: PDGFRA D842V assay at Km (Caliper electrophoretic mobility shift); conditions: biochemical, 15 uM ATP (Km), 90 minutes at 25 C; read-out: INH PDFGRA D842V
[1] = biological target: KIT D816V kinase activity (KIT autophosphorylation at tyrosine 719) in HMC1.2 cells (Homo sapiens (Human), UniProt P10721, D816V/V560G); assay: HMC1.2 autophosphorylation assay (phospho-Y719 c-KIT AlphaLISA); type: cell-based; conditions: HMC1.2 mast cell leukemia cell line (KIT V560G, D816V), 90 minutes compound; read-out: INH-KIT-PHOS-HMC1.2
D816V KIT = D816V KIT (Homo sapiens (Human), UniProt P10721, D816V); assay: KIT D816V assay at Km (Caliper electrophoretic mobility shift); conditions: biochemical, 15 uM ATP (Km), 90 minutes at 25 C; read-out: INH KIT D816V
[2] = Body weight changes in the tumor bearing mice (P815 xenograft); conditions: Dasatinib 25 mg/kg p.o. BID × 10

Sequence of PDGFRA D842V (P16234 24-1089 D842V): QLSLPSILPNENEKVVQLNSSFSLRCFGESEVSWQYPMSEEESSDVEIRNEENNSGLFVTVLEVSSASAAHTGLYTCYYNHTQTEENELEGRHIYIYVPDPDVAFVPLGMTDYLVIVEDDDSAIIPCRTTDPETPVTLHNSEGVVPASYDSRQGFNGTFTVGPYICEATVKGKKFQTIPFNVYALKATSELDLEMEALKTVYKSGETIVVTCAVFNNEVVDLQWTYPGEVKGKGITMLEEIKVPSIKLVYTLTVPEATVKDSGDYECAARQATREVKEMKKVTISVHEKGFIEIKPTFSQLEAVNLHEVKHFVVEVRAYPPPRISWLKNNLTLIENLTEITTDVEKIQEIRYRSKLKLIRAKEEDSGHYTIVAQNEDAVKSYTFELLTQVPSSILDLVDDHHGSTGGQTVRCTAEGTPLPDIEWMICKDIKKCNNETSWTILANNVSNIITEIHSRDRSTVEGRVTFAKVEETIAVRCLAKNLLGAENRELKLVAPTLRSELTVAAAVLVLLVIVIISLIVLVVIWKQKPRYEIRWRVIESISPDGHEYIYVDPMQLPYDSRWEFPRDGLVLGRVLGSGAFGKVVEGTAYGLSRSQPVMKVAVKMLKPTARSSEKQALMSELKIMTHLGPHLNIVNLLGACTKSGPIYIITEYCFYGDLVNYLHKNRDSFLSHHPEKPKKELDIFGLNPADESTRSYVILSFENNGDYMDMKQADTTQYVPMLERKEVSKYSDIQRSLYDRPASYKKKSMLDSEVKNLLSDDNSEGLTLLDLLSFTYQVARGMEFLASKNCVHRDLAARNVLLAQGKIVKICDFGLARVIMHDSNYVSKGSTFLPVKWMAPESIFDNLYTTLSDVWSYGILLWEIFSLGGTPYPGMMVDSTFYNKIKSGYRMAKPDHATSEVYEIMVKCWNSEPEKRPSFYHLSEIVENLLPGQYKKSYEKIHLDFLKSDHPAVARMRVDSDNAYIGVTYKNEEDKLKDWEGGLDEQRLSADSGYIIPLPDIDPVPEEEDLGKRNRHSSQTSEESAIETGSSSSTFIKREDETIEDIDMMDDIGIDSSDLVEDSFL
Sequence of D816V KIT (P10721 26-976 D816V): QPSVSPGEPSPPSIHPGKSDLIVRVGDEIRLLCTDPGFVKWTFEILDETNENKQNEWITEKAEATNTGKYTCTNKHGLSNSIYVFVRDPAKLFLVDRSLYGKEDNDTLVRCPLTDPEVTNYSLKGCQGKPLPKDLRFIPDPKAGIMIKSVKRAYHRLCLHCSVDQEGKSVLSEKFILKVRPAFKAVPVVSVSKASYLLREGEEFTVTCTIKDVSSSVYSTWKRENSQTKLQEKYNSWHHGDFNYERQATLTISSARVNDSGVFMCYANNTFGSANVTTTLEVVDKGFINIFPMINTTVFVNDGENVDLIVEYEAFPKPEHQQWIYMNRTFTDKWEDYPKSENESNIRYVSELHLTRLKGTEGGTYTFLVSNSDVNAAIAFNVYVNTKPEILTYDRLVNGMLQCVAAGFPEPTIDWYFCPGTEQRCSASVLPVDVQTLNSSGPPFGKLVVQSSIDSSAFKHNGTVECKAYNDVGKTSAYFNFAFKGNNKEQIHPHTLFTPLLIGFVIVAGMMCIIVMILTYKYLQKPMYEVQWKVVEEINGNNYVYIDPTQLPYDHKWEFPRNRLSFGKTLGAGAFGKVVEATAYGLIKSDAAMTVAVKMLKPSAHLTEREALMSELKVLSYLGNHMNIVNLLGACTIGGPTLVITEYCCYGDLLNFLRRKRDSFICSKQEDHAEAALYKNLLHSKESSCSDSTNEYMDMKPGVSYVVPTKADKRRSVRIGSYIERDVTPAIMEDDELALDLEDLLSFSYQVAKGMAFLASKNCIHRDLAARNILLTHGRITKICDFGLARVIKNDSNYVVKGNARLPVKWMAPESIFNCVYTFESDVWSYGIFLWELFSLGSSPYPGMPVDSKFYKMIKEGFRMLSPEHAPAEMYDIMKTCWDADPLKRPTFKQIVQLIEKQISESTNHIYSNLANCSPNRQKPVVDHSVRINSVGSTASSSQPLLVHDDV
Sequence of KIT D816V kinase activity (KIT autophosphorylation at tyrosine 719) in HMC1.2 cells (P10721 26-976 V560G/D816V): as the sequence (P10721 26-976 D816V) above, with V535G counted along it

Structure (SMILES)	IC50 (PDGFRA D842V)	IC50 [1]	IC50 (D816V KIT)	body weight loss [2]
Cn1cc(-c2cc3c(N4CCN(c5ncc([C@](C)(CO)c6ccc(F)cc6)cn5)CC4)ncnn3c2)cn1 [Compound 79]	< 1 nM	< 50 nM	1.01 to 10 nM	
Cc1ncc(-c2cc3c(N4CCN(c5ncc([C@](C)(O)c6ccc(F)cc6)cn5)CC4)ncnn3c2)s1 [Compound 87]	1.01 to 10 nM	100 to 1000 nM	1.01 to 10 nM	
Fc1ccccc1Sc1cnc(N2CCN(c3ncnn4cc(-c5cnn(C[C@@H]6CNCCO6)c5)cc34)CC2)nc1 [Compound 123, (S)-2-((4-(4-(4-(5-(2-fluorophenylthio)pyrimidin-2-yl)piperazin-1-yl)pyrrolo[1,2-f][1,2,4]triazin-6-yl)-1H-pyrazol-1-yl)methyl)morpholine]	1.01 to 10 nM	50 to 100 nM	1.01 to 10 nM	
CN(C)C(=O)c1ccc(-c2cc3c(N4CCN(c5ncc(Cc6ccccc6)cn5)CC4)ncnn3c2)cc1 [Compound 98]	< 1 nM	100 to 1000 nM	< 1 nM	
Cn1cc(-c2cc3c(N4CCN(c5ncc(C(C)(C)c6ccc(F)cc6)cn5)CC4)ncnn3c2)cn1 [Compound 39]	< 1 nM	< 50 nM	1.01 to 10 nM	
C[C@](N)(c1ccccc1)c1cnc(N2CCN(c3ncnn4cc(-c5ccc(F)cc5)cc34)CC2)nc1 [Compound 34]	< 1 nM	50 to 100 nM	< 1 nM	
COc1ccc(-c2cc3c(N4CCN(c5ncc([C@@](C)(O)c6ccc(F)cc6)cn5)CC4)ncnn3c2)cc1 [Compound 102]	1.01 to 10 nM	50 to 100 nM	1.01 to 10 nM	
C[C@](O)(c1ccc(F)cc1)c1cnc(N2CCN(c3ncnn4cc(-c5cn[nH]c5)cc34)CC2)nc1 [Compound 30]	< 1 nM	< 50 nM	< 1 nM	
C[C@@H]1CN(c2ncnn3cc(-c4cnn(C)c4)cc23)CCN1c1ncc([C@@](C)(O)c2ccc(F)cc2)cn1 [Compound 77]	< 1 nM	< 50 nM	1.01 to 10 nM	
COc1ccc(-c2cc3c(N4CCN(c5ncc(Cc6ccccc6)cn5)CC4)ncnn3c2)cc1 [Compound 18]	10 to 100 nM	> 10000 nM	10 to 100 nM	
Cn1cc(-c2cc3c(N4CCN(c5ncc([C@@](C)(O)c6ccc(F)cc6F)cn5)CC4)ncnn3c2)cn1 [Compound 94]	< 1 nM	< 50 nM	< 1 nM	
Cn1cc(-c2cc3c(N4CCN(c5ncc([C@](C)(O)c6c(F)cc(F)cc6F)cn5)CC4)ncnn3c2)cn1 [Compound 115]	< 1 nM	< 50 nM	1.01 to 10 nM	
C[C@](N)(c1ccc(F)cc1)c1cnc(N2CCN(c3ncnn4cc(-c5ccc(F)cc5)cc34)CC2)nc1 [Compound 62]	1.01 to 10 nM	50 to 100 nM	1.01 to 10 nM	
Cn1cc(-c2cc3c(N4CCN(c5ncc([C@@](C)(N)c6ccccc6)cn5)CC4)ncnn3c2)cn1 [Compound 22]	< 1 nM	< 50 nM	< 1 nM	
C[C@@H]1CN(c2ncnn3cc(-c4cnn(C)c4)cc23)CCN1c1ncc([C@](C)(O)c2ccc(F)cc2)cn1 [Compound 76]	1.01 to 10 nM	50 to 100 nM	1.01 to 10 nM	
Cn1cc(-c2cc3c(N4CCN(c5ncc([C@@](O)(c6ccc(F)cc6)C(F)F)cn5)CC4)ncnn3c2)cn1 [Compound 117]	1.01 to 10 nM	< 50 nM	< 1 nM	
C[C@H](c1ccccc1)c1cnc(N2CCN(c3ncnn4cc(-c5cnn(C)c5)cc34)CC2)nc1 [Compound 9, (R)-6-(1-methyl-1H-pyrazol-4-yl)-4-(4-(5-(1-phenylethyl)pyrimidin-2-yl)piperazin-1-yl)pyrrolo[1,2-f][1,2,4]triazine]	1.01 to 10 nM	< 50 nM	1.01 to 10 nM	
Cn1cc(-c2cc3c(N4CCN(c5ncc([C@@](N)(c6ccc(F)cc6)C(F)F)cn5)CC4)ncnn3c2)cn1 [Compound 111]	< 1 nM	< 50 nM	< 1 nM	
C[C@](O)(c1ccc(F)cc1)c1cnc(N2CCN(c3ncnn4cc(-c5ccccc5)cc34)CC2)nc1 [Compound 38]	1.01 to 10 nM	50 to 100 nM	1.01 to 10 nM	
Cc1nc(Nc2ncc(C(=O)Nc3c(C)cccc3Cl)s2)cc(N2CCN(CCO)CC2)n1 [Dasatinib, reference compound]				more than 5%
Cn1cc(-c2cc3c(N4CCN(c5ncc([C@@](N)(c6ccc(F)cc6)C(F)(F)F)cn5)CC4)ncnn3c2)cn1 [Compound 122]	1.01 to 10 nM	< 50 nM	1.01 to 10 nM	
Cn1cc(-c2cc3c(N4CCN(c5ncc(C(C)(C)c6ccccc6)cn5)CC4)ncnn3c2)cn1 [Compound 20]	1.01 to 10 nM	< 50 nM	1.01 to 10 nM	
Cn1cc(-c2cc3c(N4CCN(c5ncc([C@](C)(N)c6ccc(F)cc6F)cn5)CC4)ncnn3c2)cn1 [Compound 86]	< 1 nM	< 50 nM	< 1 nM	
C[C@@H](c1ccccc1)c1cnc(N2CCN(c3ncnn4cc(-c5cnn(C)c5)cc34)CC2)nc1 [Compound 10, (S)-6-(1-methyl-1H-pyrazol-4-yl)-4-(4-(5-(1-phenylethyl)pyrimidin-2-yl)piperazin-1-yl)pyrrolo[1,2-f][1,2,4]triazine]	< 1 nM	< 50 nM	< 1 nM	

Continued, in another order:

IC50 (PDGFRA D842V)	IC50 [1]	IC50 (D816V KIT)	Structure (SMILES)	body weight loss [2]
1.01 to 10 nM	< 50 nM	1.01 to 10 nM	Cn1cc(-c2cc3c(N4CCN(c5ncc([C@](C)(O)c6ccc(Cl)cc6)cn5)CC4)ncnn3c2)cn1 [Compound 84]	
< 1 nM	< 50 nM	< 1 nM	O[C@@](c1ccc(F)cc1)(c1cnc(N2CCN(c3ncnn4cc(-c5cn[nH]c5)cc34)CC2)nc1)C(F)F [Compound 100]	
< 1 nM	< 50 nM	< 1 nM	Cn1cc(-c2cc3c(N4CCN(c5ncc([C@@](C)(CO)c6ccc(F)cc6)cn5)CC4)ncnn3c2)cn1 [Compound 78]	
< 1 nM	< 50 nM	< 1 nM	Cn1cc(-c2cc3c(N4CCN(c5ncc([C@](C)(O)c6ccc(F)cc6)cn5)CC4)ncnn3c2)cn1 [Compound 45]	
< 1 nM	< 50 nM	< 1 nM	C[C@](N)(c1ccc(F)cc1)c1cnc(N2CCN(c3ncnn4cc(-c5cn[nH]c5)cc34)CC2)nc1 [Compound 26]	
< 1 nM	< 50 nM	< 1 nM	Cn1cc(-c2cc3c(N4CCN(c5ncc([C@@](C)(O)c6c(F)cc(F)cc6F)cn5)CC4)ncnn3c2)cn1 [Compound 116]	
< 1 nM	50 to 100 nM	1.01 to 10 nM	Cn1cc(-c2cc3c(N4CCN(c5ncc([C@](C)(N)c6ccccc6)cn5)CC4)ncnn3c2)cn1 [Compound 21]	
1.01 to 10 nM	50 to 100 nM	1.01 to 10 nM	C[C@@](O)(c1ccc(F)cc1)c1cnc(N2CCN(c3ncnn4cc(-c5cn[nH]c5)cc34)CC2)nc1 [Compound 29]	
1.01 to 10 nM	< 50 nM	1.01 to 10 nM	CO[C@](C)(c1ccc(F)cc1)c1cnc(N2CCN(c3ncnn4cc(-c5cnn(C)c5)cc34)CC2)nc1 [Compound 68]	
1.01 to 10 nM	50 to 100 nM	1.01 to 10 nM	CC[C@@H](c1ccc(F)cc1)c1cnc(N2CCN(c3ncnn4cc(-c5cnn(C)c5)cc34)CC2)nc1 (single isomer, unassigned) [Compound 41]	
< 1 nM	< 50 nM	< 1 nM	CCn1cc(-c2cc3c(N4CCN(c5ncc([C@@](C)(N)c6ccccc6)cn5)CC4)ncnn3c2)cn1 [Compound 35]	
1.01 to 10 nM	< 50 nM	1.01 to 10 nM	Cn1cc(-c2cc3c(N4CCN(c5ncc(Sc6ccccc6F)cn5)[C@H](CO)C4)ncnn3c2)cn1 [Compound 97]	
< 1 nM	< 50 nM	< 1 nM	Cn1cc(-c2cc3c(N4CCN(c5ncc([C@](O)(CF)c6ccc(F)cc6)cn5)CC4)ncnn3c2)cn1 [Compound 96]	
1.01 to 10 nM	100 to 1000 nM	1.01 to 10 nM	C[C@](O)(c1ccc(F)cc1)c1cnc(N2CCN(c3ncnn4cc(-c5ccc(F)cc5)cc34)CC2)nc1 [Compound 65]	
1.01 to 10 nM	< 50 nM	< 1 nM	Cn1cc(-c2cc3c(N4CCN(c5ncc(Cc6ccc(F)cc6)cn5)CC4)ncnn3c2)cn1 [Compound 14]	
1.01 to 10 nM	< 50 nM	< 1 nM	C[C@](O)(c1cnc(N2CCN(c3ncnn4cc(-c5cn[nH]c5)cc34)CC2)nc1)c1ccc(F)cc1F [Compound 57]	
